# Laboratory results from patent publication US20170348306A1, “METHODS OF TREATING CANCER” (GLAXOSMITHKLINE LLC, priority 2011, published 2017).
# Where two headings read alike, the source gives them in different places.
# Tests used:
# Assay in all cases: Cell proliferation assay (6 days, CellTiter-Glo)
# Format in all cases: cell-based
# Farage = details: Homo sapiens, 144 h, DLBCL, EZH2 D185H (HET), read-out: AVERAGE GROWTH IC50
# Excerpt: (§1) Thus, Example 22 and Table 6 better reflect the inhibition of HZH2 inhibitors on cell lines, e.g. the lymphoma cell lines. DLBCL cell lines were the most sensitive to EZH2 inhibition (FIG. 11a). […] Evaluation of GSK126 in additional lymphoma cell lines and extensive genomic and epigenomic characterization will be required to fully elucidate the determinants of sensitivity among lymphoma subtypes.
# (§2) Biochemical assays utilized the 5-member PRC2 complex (human Flag-EZH2, EED, SUZ12, AEBP2, RbAp48) containing either WT or mutant EZH2, [^3H-]SAM and the indicated peptide substrate; reactions were incubated for 30 minutes. Global histone modification levels were determined by ELISA or western blot methods using antibodies specific for total histone H3, H3K27me1, H3K27me2, or H3K27me3. Cell proliferation and Caspase-3/7 activity were assessed using CellTiter-Glo and Caspase-Glo 3/7 (Promega), respectively. Gene expression profiling was conducted using Affymetrix Human Genome U133 Plus 2.0 microarrays. Differentially-expressed probe sets were determined by fitting the data to a linear model using the limma statistical package (http://www.bioconductor.org) and carrying out pair-wise contrasts of treated versus control. Significant probe sets were filtered for detection (log2 signal threshold of 8), an average fold-change >2 or <−2, or >1.5 or <−1.5, where indicated, with p-values adjusted for multiple testing correction by FDR (Benjamini Hochberg)<0.1. H3K27me3 ChIP reads were aligned using Bowtie (56). H3K27me3 enrichment peaks were identified using SICER (57) with optimized parameters. A custom PERL script was utilized to quantify the average basal H3K27me3 ChIP-seq tag density across gene sets. All in vivo studies were conducted after review by the Institutional Animal Care and Use Committee at GSK and in accordance with the GSK Policy on the Care, Welfare and Treatment of Laboratory Animals. GSK126 and vehicle were administered to mice intraperitoneally. Two-tailed t-tests were conducted assuming two samples of equal variance.
# (§3) The optimal cell seeding was determined empirically for all cell lines by examining the growth of a wide range of seeding densities in a 384-well format to identify conditions that permitted proliferation for 6 days. […] Plates were incubated for 6 days at 37° C. in 5% CO2. Cells were then lysed with CellTiter-Glo (Promega) and chemiluminescent signal was detected with a TECAN Safire2 microplate reader. In addition, an untreated plate of cells was harvested at the time of compound addition (T0) to quantify the starting number of cells. CTG values obtained after the 6 day treatment were expressed as a percent of the T0 value and plotted against compound concentration.
# WSU-DLCL2 = details: Homo sapiens, WSUDLCL2, 144 h, DLBCL, EZH2 Y641F (HET), read-out: AVERAGE GROWTH IC50
# Excerpt: as §1, §2, §3
# HT = details: Homo sapiens, 144 h, DLBCL, EZH2 WT, read-out: AVERAGE GROWTH IC50
# Excerpt: as §1, §2, §3
# RPMI-6666 = details: Homo sapiens, 144 h, HODGKIN'S, EZH2 WT, read-out: AVERAGE GROWTH IC50
# Excerpt: as §1, §2, §3
# Hs 445 = details: Homo sapiens, 144 h, HODGKIN'S, EZH2 WT, read-out: AVERAGE GROWTH IC50
# Excerpt: as §1, §2, §3
# BC-2 = details: Homo sapiens, 144 h, AIDS-BCBL, EZH2 WT, read-out: AVERAGE GROWTH IC50
# Excerpt: as §1, §2, §3
# RL = details: Homo sapiens, 144 h, DLBCL, EZH2 Y641N, D185H (HET), read-out: AVERAGE GROWTH IC50
# Excerpt: as §1, §2, §3
# MINO = details: Homo sapiens, 144 h, B-NHL, EZH2 D185H (HET), read-out: AVERAGE GROWTH IC50
# Excerpt: as §1, §2, §3
# SU-DHL-8 = details: Homo sapiens, 144 h, DLBCL, EZH2 WT, read-out: AVERAGE GROWTH IC50
# Excerpt: as §1, §2, §3
# BC-3 = details: Homo sapiens, 144 h, PEL, AIDS-BCBL, EZH2 D185H (HET), read-out: AVERAGE GROWTH IC50
# Excerpt: as §1, §2, §3
# MC116 = details: Homo sapiens, 144 h, B-NHL, EZH2 WT, read-out: AVERAGE GROWTH IC50
# Excerpt: as §1, §2, §3
# U-2932 = details: Homo sapiens, U2932, 144 h, DLBCL, EZH2 WT, read-out: AVERAGE GROWTH IC50
# Excerpt: as §1, §2, §3
# KARPAS-1106P = details: Homo sapiens, 144 h, MLBCL, EZH2 E744A (HET), read-out: AVERAGE GROWTH IC50
# Excerpt: as §1, §2, §3
# L-428 = details: Homo sapiens, 144 h, HODGKIN'S, EZH2 Y641S (HET), read-out: AVERAGE GROWTH IC50
# Excerpt: as §1, §2, §3
# WSU-FSCCL = details: Homo sapiens, 144 h, FL, EZH2 D185H (HET), read-out: AVERAGE GROWTH IC50
# Excerpt: as §1, §2, §3
# SC-1 = details: Homo sapiens, 144 h, FL, EZH2 D185H (HET), read-out: AVERAGE GROWTH IC50
# Excerpt: as §1, §2, §3
# SU-DHL-6 = details: Homo sapiens, 144 h, DLBCL, EZH2 Y641N (HET), read-out: AVERAGE GROWTH IC50
# Excerpt: as §1, §2, §3
# Jiyoye = details: Homo sapiens, 144 h
# Excerpt: as §1, §2, §3
# WILL-2 = details: Homo sapiens, 144 h, DLBCL, EZH2 WT, read-out: AVERAGE GROWTH IC50
# Excerpt: as §1, §2, §3
structure (smiles),measurement,setting,value
CC[C@H](C)n1cc(C)c2c(C(=O)NCc3c(C)cc(C)[nH]c3=O)cc(-c3ccc(N4CCNCC4)nc3)cc21 [GSK126],IC50,Farage,1.72 µM
same,IC50,WSU-DLCL2,0.134 µM
same,IC50,HT,0.516 µM
same,IC50,RPMI-6666,1.43 µM
same,IC50,Hs 445,3.53 µM
same,IC50,BC-2,4.76 µM
same,IC50,RL,4.73 µM
same,IC50,MINO,7.34 µM
same,IC50,SU-DHL-8,3.19 µM
same,IC50,BC-3,2.22 µM
same,IC50,MC116,10.2 µM
same,IC50,U-2932,2.94 µM
same,IC50,KARPAS-1106P,4.54 µM
same,IC50,L-428,4.7 µM
same,IC50,WSU-FSCCL,12 µM
same,IC50,SC-1,3.73 µM
same,IC50,SU-DHL-6,0.582 µM
same,IC50,"Jiyoye; JIYOYE, BURKITT, EZH2 WT, read-out: AVERAGE GROWTH IC50",0.232 µM
same,IC50,"Jiyoye; Jiyoye, BL cell line with WT EZH2, read-out: growth IC50",0.23 µM
same,IC50,WILL-2,27.5 µM
